Source: patent publication US6495588B2, “Scytonemin and methods of using thereof” (The Regents of the University of California, priority 2000, dated 2002)

Tests used:
GST-Tie2 = biological target: T1, GST-Tie2 (Homo sapiens, UniProt Q02763); assay: GST-Tie kinase activity assay; format: biochemical
T1 construct: Each reaction comprised 5 μg GST-Tie2 (intracellular kinase domain); made in house; host or cells: baculovirus (pAcG1 vector)
Method: To determine the effect of SCY on GST-Tie kinase activity, the following assay was conducted. Clones for the Tie2 receptor were obtained and submitted for confirmatory sequence analysis. Similar to the method described by Huang et al. (1995) Oncogene 11:2097-2103, which is herein incorporated by reference, GST fusion constructs using the human Tie kinase domains and the commercially available pAcG1 vector (Pharmigen, San Diego, Calif.) were constructed. […] The desired restriction fragment was recovered from a partial Tie2 cDNA clone and then subcloned directly into the EcoRI site of the commercially pAcG1 expression vector. These final constructs were transfected into the baculovirus and GST-Tie2 kinase was semipurified using a glutathione affinity column to greater than about 90% purity, as determined via SDS-PAGE analysis and Coomassie Blue staining.
The kinase assay is carried out in 96 well flashplates and in the same kinase buffer used in the PLK1 kinase assays. Each reaction comprised 5 μg GST-Tie2 (intracellular kinase domain), 1 μCi [^33P]-γATP, 30 μM cold ATP in 60 μl. Compounds were in DMSO to give a final concentration of 1% DMSO. The reaction was incubated for 2 hours at 30° C. and terminated by washing the plate five times with 10 μM cold ATP. Reactions were quantitated by using a Packard Top-Count.

[1] = system: tissue myeloperoxidase activity; assay: Myeloperoxidase (MPO) enzyme assay of mouse ear biopsies; format: in vivo; details: topical
Text: To determine neutrophil influx into inflammed tissue region, the following assay may be conducted. Generally, myeloperoxidase (MPO), a neutrophil-specific marker released from primary granules, is indicative of the extravasation of pro-inflammation neutrophils from blood into the skin. Thus, to determine whether a test compound prevents, inhibits, modulates or attenuates inflammation related to an immunogenic inflammatory pathway or neutrophil influx, ear biopsies from treated and untreated mouse ears may be extracted and quantitated according to a modified method of Bradley, P.O., et al. (1982) J. Invest Dermatology 78:206-209, which is herein incorporated by reference. Specifically, ear bores from each treatment group from mouse ear edema assays from part A above were pooled and homogenized in 80 mM sodium phosphate buffer (pH 5.4) comprising 0.5% hexadecyltrimethylammonium bromide in a siliconized glass test tube for 1 minute at 0° C. using a Brinkman Polytron. The mixtures were centrifuged at 10,000×g at 4° C. for 30 minutes. 10 μl samples from each group were then assayed in a 96-well microtiter plate. The assay was initiated by adding 250 μl of o-dianisi-dine/phosphate reagent (0.28 mg of dianisidine added to 1 ml of 50 mM sodium phosphate comprising 0.0015 H2O2) to each well. After a 30 minute incubation at 37° C., the plates were read at 450 nm on a Molecular Devices microplate reader. Diluted control biopsies were utilized to develop a standard curve. Optical density values from drug-treated groups were compared to control groups to determine the % of control values of enzyme activity.

GST-Myt1 = biological target: T2, GST-Myt1 (Homo sapiens, UniProt Q99640); assay: GST-Myt1 autophosphorylation DELFIA assay; format: biochemical; details: 1 μM ATP
T2 construct: The Myt1 gene was truncated after amino acid 379 and just prior to the membrane-anchoring domain; made in house; host or cells: Sf9 (baculovirus, pFASTBAC)
T2 sequence (Q99640 1-379): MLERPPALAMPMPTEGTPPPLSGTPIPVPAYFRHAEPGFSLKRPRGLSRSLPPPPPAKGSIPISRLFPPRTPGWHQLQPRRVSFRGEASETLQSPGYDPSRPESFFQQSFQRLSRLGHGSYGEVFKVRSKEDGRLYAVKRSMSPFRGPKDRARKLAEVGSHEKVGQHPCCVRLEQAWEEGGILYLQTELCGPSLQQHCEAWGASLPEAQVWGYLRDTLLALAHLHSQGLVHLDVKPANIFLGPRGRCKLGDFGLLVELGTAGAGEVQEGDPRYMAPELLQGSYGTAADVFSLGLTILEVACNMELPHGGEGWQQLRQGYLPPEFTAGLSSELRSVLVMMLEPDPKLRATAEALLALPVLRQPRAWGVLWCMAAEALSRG
Text: To determine the effect of SCY on GST-Myt1 activity, a rh-GST-Myt1 expression vector was constructed to include gst fused to the amino terminus of a truncated human Myt1 gene via a linker comprising a thrombin cleavage site. The Myt1 gene was truncated after amino acid 379 and just prior to the membrane-anchoring domain. The construct was cloned into the baculovirus expression system, pFASTBAC (Gibco-BRL, Gaithersburg, Md.).
Spodoptera frugiperda 9 (Sf9) cells were infected with the virus and grown for three days before purifying as described in Roshak et al. (2000) for GST-PLK1 and GST-cdc25C to 75% purity as determined by SDS-PAGE analysis and Coomassie Blue staining. Dissociative enhanced lanthanide fluorescence immunoassays (DELFIA) (Wallac OY, Turku, Finland) were performed in 50 μl/well with 0.25 μg GST-Myt1, in reaction buffer (50 mM HEPES, pH 7.4, 2 mM Mn(OAc)2, 1 μM ATP, 1 mM DTT (final reaction concentrations)), and SCY (1 nM to 10 μM final reaction concentration). […]
Reactions were allowed to proceed at room temperature with shaking for 20 minutes and were stopped with the addition of EDTA to give a final concentration of 20 mM, and the protein was allowed to bind to the wells for an additional 40 minutes. […] The plate was then read on the 1420 VICTOR plate counter from Wallac, Inc.

T1 sequence (Q02763 824-1096 limits assumed): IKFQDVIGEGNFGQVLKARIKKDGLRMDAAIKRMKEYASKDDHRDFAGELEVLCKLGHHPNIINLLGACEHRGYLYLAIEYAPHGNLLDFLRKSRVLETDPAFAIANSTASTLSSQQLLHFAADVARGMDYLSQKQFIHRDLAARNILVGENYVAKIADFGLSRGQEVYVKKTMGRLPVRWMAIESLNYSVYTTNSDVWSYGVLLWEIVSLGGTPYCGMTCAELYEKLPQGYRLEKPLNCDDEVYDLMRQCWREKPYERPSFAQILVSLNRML

scytonemin
IC50 (GST-Tie2): > 10 µM
concentration at which GST-Tie2 activity is significantly affected or inhibited (GST-Tie2; 30 μM cold ATP): ≥ 10 µM
inhibition of MPO activity ([1]; 1 μg scytonemin): about 19%
inhibition of MPO activity ([1]; 5 μg scytonemin): ~18%
inhibition of MPO activity ([1]; 10 μg scytonemin (fourth dose listed)): ~90%
inhibition of MPO activity ([1]; 10 μg scytonemin (third dose listed)): ~68%
IC50 (GST-Myt1): ~1 µM
